Laboratory results published in patent US20220362394A1, “ANTI-BCMA ANTIBODY CONJUGATES” (SUTRO BIOPHARMA, INC., priority 2019, published 2022).

System: MM.1S multiple myeloma cells
Test: Disseminated MM.1S multiple myeloma model
Format: in vivo, NSG mice
Details: Example 11
Procedure: Female NOD severe combined immune deficient (SCID) gamma (NSG) mice 8-9 weeks of age were inoculated with 5×10^6 multiple myeloma MM.1S cells into the tail vein. Randomization by body weight and start of treatment was initiated 7 days post tumor inoculation. The treatment groups are outlined in Table 18. All investigational test articles were formulated in 10 mM citrate pH 6.0, 10% sucrose. Groups 1-10 (n=6/group) were monitored for survival endpoint characterized by >20% body weight loss and clinical signs including lethargy, hind limb paralysis or moribundity. Groups 11-20 (n=3/group) were used for bone marrow harvest and analysis of tumor burden on day 28 post tumor cell inoculation. For all groups, body weights were monitored 1-2×/week.
Tumor burden was assessed and quantified by detection of hCD138 positive (hCD138+) cells in the bone marrow. Bone marrow cells from mouse femur and tibia were pooled and assessed for human CD138+ expression using the Alexa Fluor 647 mouse anti-human CD138 clone MI15 (BD Biosciences #562097) according to the manufacturer's protocol. […] Data was analyzed using Flowjo (Tree Star, Inc., Ashland, Oreg.).
Mean survival, survival delay, and tumor burden, during and at the study endpoint, were analyzed using a one-way analysis of variance (ANOVA) with Dunnett's multiple comparison test. […]

| Molecule | mean survival (0.8 mg/kg q7dx2 IP) [days] | effect on survival compared to vehicle control (3 or 10 mg/kg single IP) |
| --- | --- | --- |
| CC(C)C[C@H](NC(=O)[C@H](Cc1ccccc1)NC(=O)c1cnccn1)B(O)O [Velcade] | 40.6 |  |
| Daratumumab: MM standard of care agent, clinical grade |  | no significant effect on survival |
